Data taken from patent publication US5620892A, “Strain of Saccharomyces cerevisiae expressing the gene encoding potassium transporter minK” (priority 1993, dated 1997).

Tests used:
[1] = molecular target: T1, HminK (Homo sapiens, UniProt P15382, S38G); test: Inhibition of growth in agar, HminK strain; format: cell-based; parameters: key: + indicates compound produced a zone on inhibition; conditions: cultures grown in inducing medium (2% galactose) embedded in agar; scored after 48-hour incubation at 30° C.
T1 construct: mRNA in Xenopus oocytes (A3)
Procedure: (§1) Cultures of strains containing the pGAL::HminK plasmid or the pGAL::TRK1 plasmid were grown in inducing media (2% galactose) at 30° C. with vigorous aeration. Inhibitors were added to cultures over a range of concentrations. Samples were removed at various intervals and the optical density at 600 nm was determined. Growth measurements were normalized to values obtained for growth in the absence of drug and are plotted as Relative Growth versus concentration (FIG. 6). Similar cultures grown in inducing medium were embedded in agar and assessed for growth in presence of the compounds listed in Table 1. Plates were scored after a 48-hour incubation at 30° C.; "+" denotes growth inhibition.

[2] = tested on: minK; conditions: literature and personal communication; cited from earlier work
[3] = molecular target: T2, TRK1 (Saccharomyces cerevisiae, UniProt P12685); test: Challenge of the pGAL::TRK1-transformed double mutant on agar plates at 100 mM and 0.1 mM KCl; format: cell-based; conditions: clofilium 100 μM; 100 mM and 0.1 mM potassium chloride
T2 sequence (P12685 1-1235): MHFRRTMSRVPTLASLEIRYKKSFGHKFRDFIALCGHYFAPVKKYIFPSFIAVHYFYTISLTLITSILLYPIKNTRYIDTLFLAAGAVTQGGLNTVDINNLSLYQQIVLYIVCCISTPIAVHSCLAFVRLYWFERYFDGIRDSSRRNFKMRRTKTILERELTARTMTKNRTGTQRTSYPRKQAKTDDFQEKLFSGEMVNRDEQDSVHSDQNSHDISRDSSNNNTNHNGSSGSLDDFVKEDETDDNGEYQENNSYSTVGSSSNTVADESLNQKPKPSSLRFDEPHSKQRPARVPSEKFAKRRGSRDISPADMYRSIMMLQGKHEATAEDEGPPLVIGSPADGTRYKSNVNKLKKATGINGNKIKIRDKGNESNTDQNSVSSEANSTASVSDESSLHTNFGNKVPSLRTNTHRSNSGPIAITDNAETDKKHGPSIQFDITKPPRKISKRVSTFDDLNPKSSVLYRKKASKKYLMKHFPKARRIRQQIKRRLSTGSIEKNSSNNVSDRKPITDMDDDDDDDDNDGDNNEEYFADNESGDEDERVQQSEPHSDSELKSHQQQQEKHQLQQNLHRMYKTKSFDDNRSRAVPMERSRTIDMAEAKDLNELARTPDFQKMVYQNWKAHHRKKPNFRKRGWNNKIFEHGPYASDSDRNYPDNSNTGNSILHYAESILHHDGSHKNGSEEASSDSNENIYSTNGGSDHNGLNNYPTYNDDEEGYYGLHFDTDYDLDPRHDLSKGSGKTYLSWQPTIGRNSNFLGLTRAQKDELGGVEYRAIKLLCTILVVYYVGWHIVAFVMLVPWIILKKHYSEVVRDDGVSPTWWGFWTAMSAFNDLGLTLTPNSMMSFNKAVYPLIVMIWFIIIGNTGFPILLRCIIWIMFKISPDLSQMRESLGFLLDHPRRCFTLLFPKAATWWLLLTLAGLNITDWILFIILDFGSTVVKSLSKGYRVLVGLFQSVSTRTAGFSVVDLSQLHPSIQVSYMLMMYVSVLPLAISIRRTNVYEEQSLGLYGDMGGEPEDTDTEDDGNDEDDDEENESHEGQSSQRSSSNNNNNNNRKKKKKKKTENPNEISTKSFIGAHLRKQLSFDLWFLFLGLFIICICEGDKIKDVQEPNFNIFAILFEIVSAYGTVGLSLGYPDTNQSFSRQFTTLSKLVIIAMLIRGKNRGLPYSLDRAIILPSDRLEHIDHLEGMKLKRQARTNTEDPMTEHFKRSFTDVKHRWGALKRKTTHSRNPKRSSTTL
Procedure: (§2) In another experiment, the double mutant was transformed with pGAL vector including either TRK1 or HminK as described above. The transformed strains were then separately challenged with clofilium (100 μM) and dofetilide […] at 100 mM and 0.1 mM of potassium chloride.
(§3) Cultures of K^+ transporter mutant strains containing either pYES2 vector, pGAL::TRK1 or pGAL::HminK plasmids were grown in inducing media (2% galactose) at 30° C. with vigorous aeration. A. Serial dilutions of each culture were spotted onto agar plates containing either 100 mM or 0.1 mM. KCl. B. Serial dilutions of strains containing pGAL::TRK1 or pGAL::HminK plasmids were spotted onto agar plates containing 100 μM clofilium or 1 μM dofetilide at both KCl concentrations. All plates were incubated at 30° C. and scored after 2 days.

[4] = molecular target: T1, HminK; test: Potassium ion currents of HminK mRNA transcripts expressed in Xenopus oocytes; format: cell-based; conditions: Xenopus oocytes expressing the HminK transcripts; clofilium 50 μM
Procedure: For further verification, mRNA transcripts were expressed in Xenopus oocytes. The expression products caused potassium ion currents that are blocked by clofilium (50 μM) and kinetically indistinguishable from HminK currents reported in the literature. […] Ben Efraim et al., Biochemistry 32: 2371-2377 (1993).

[5] = tested on: IKs; conditions: slow component of the delayed rectifier; literature; cited from earlier work
[6] = molecular target: T1, HminK; test: Challenge of the pGAL::HminK-transformed double mutant on agar plates at 100 mM and 0.1 mM KCl; format: cell-based; conditions: clofilium 100 μM; 100 mM and 0.1 mM potassium chloride
Procedure: as §2, §3

[7] = tested on: IKr; conditions: rapid, rectifying component of the delayed rectifier; literature; cited from earlier work
[8] = molecular target: T2, TRK1; test: Inhibition of growth in agar, TRK1 strain; format: cell-based; parameters: key: + indicates compound produced a zone on inhibition; conditions: cultures grown in inducing medium (2% galactose) embedded in agar; scored after 48-hour incubation at 30° C.
Procedure: as §1

SMILES	Inhibition in agar HminK strain [1]	Blockage of minK expressed in Xenopus oocytes [2]	Block of potassium uptake in the TRK1 strain [3]	Block of potassium ion currents [4]	Block of IKs [5]	Block of potassium uptake in the HminK strain [6]	Block of IKr [7]	Inhibition in agar TRK1 strain [8]
CC[N+](CC)(CC)CC [TEA Cl]	+	–	–	–	–	–	–	–
CCCCCCC[N+](CC)(CC)CCCCc1ccc(Cl)cc1 [clofilium]	+	blockage	not in the TRK1 strain	blocked	blocked	blocked potassium uptake in the HminK strain	blocked	–
CC(C)NCC(O)c1ccc(NS(C)(=O)=O)cc1 (stereo not drawn) [d-sotalol]	–	–	–	–	not	–	blocked	–
CN(CCOc1ccc(NS(C)(=O)=O)cc1)CCc1ccc(NS(C)(=O)=O)cc1 [dofetilide]	–	–	–	–	not	–	blocked	–
C=C[C@H]1C[N@@]2CC[C@H]1C[C@@H]2[C@@H](O)c1ccnc2ccc(OC)cc12 [quinidine]	+	–	–	–	–	–	–	+
